This is an account of results in patent US8951999B2, “Compounds” (Orexo AB, priority 2009, dated 2015).

In the test the target is T1, recombinant human mPGES-1 (Homo sapiens, UniProt O14684).
T1 sequence (O14684 1-152): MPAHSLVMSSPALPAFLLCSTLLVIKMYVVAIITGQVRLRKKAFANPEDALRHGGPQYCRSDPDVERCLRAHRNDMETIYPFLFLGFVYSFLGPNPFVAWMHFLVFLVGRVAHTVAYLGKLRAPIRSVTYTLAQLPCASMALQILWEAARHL
As to the kind of experiment: Assay B: mPGES-1 enzyme assay (modified). The test is classed as biochemical. Conditions: biological assay B (all other compounds); PGH2 final conc. 2 μM, HTRF; read-out: mPGES-1 inhibitory effect IC50. The method, then:
Assay B: mPGES-1 Enzyme Assay (Modified)
The aim of this assay is to determine the affinity of a test compound for the mPGES-1 enzyme.
47 μl of recombinant human mPGES-1 (˜0.5 μg protein/well) containing microsomal suspension in a buffer containing GSH, (2.5 mmol/L L-Glutathione reduced, dissolved in 0.1 mol/L Phosphat Buffer pH 7.4) is dispensed in a 384-well plate and thereafter 1 μl of the test compound(s) is/are added and incubated for 25 minutes at room temperature. The enzyme reaction is started by the addition of 2 ul PGH2 (final conc. 2 μM) dissolved in water-free Diglyme. After 60 seconds the reaction is terminated by addition of a stop solution containing FeCl2 (10 μL 0.074 mol/l FeCl2). The samples are diluted between 1:25 in PBS (Phosphate Buffered Saline). 10 μl of the diluted samples are transferred to 384-well low volume plate. In order to quantify the amount of PGE2 that has been formed, a homogenous time resolved fluorescent (HTRF) detecting of PGE2 has been performed using a commercially available kit from Cisbio according to the manufactures recommendation. This HTRF-based assay has been described in detail (see: Goedken et al., J Biomol Screen, 2008, 13(7), 619-625). Briefly, the diluted samples are mixed with […] PGE2-d2 conjugate and 5 μl anti-PGE2 cryptate conjugate. After an incubation period of the plates over night, the fluorescence is measured by the use of an appropriate microplate reader.
The fluorescence of Europium cryptate (maxex=307 nm, maxem=620 nm) and d2-PGE2 (maxex=620 nm, maxem=665 nm) are measured.
The extent of the specific HTRF is measured as a ratio of the emission intensity at 665 nm vs. that at 620 nm at an excitation pulse of 320 nm. The quantification plate contains also wells with different concentrations of PGE2 as calibration curve for the calculation of the PGE2 concentrations from the HTRF ratio values.
From all mPGES enzyme assay the background is subtracted and the IC50 is calculated over a nonlinear regression with conventional software.
(Time-resolved FRET reads energy transfer from a long-lived donor to a nearby acceptor.)
For `CC(C)(C(=O)NCc1ccc(Cl)c(C(=O)Nc2ccc(OCC(F)F)c(C(=O)Nc3ccc(Br)c(Cl)c3)c2)c1)C(F)(F)F` [Example 105], the 50% inhibitory concentration (IC50) came to 5 nM.

Turning to `CC(C)(C)C(=O)NCc1ccc(F)c(C(=O)Nc2ccc(OCC(F)F)c(C(=O)Nc3ccc(Br)cc3)c2)c1Cl` [Example 44, N-[4-(2,2-Difluoroethyl)oxy-3-(4-bromophenyl)aminocarbonyl-phenyl]-6-fluor-2-chlor-3-(tert-butylcarbonylamino)methyl-benzamide], the half-inhibitory concentration (IC50) worked out at 15 nM.

As for `O=C(Nc1ccc(OCC(F)F)c(C(=O)Nc2ccc(Br)cc2)c1)c1cc(CNC(=O)C2(O)CC2)ccc1Cl` [Example 162], the half-maximal inhibitory concentration (IC50) came to 8 nM.

For `CC(C)(C(=O)NCc1ccc(Cl)c(C(=O)Nc2ccc(OCC(F)F)c(C(=O)NCC3CCC3)c2)c1)C(F)(F)F` [Example 141], the IC50 is 5 nM.

`CC(C)(C(=O)NCc1ccc(Cl)c(C(=O)Nc2ccc(OCC(F)F)c(C(=O)Nc3ccc(Br)cc3)c2)c1Cl)C(F)(F)F` [Example 47, N-[4-(2,2-Difluoroethyl)oxy-3-(4-bromophenyl)aminocarbonyl-phenyl]-2,6-dichloro-3-(2,2,2-trifluoro-1,1-dimethyl-ethyl)carbonylaminomethyl-benzamide]: the IC50 came to 6 nM.

Regarding `CC(C)(C)C1CCC(NC(=O)c2cc(NC(=O)c3cc(CNC(=O)C(C)(C)C(F)(F)F)ccc3Cl)ccc2OCC(F)F)CC1` (centres unmarked) [Example 87], the IC50 was 5 nM.

Regarding `CC(C)(C(=O)NCc1ccc(Cl)c(C(=O)Nc2ccc(OCC(F)F)c(C(=O)NC3CCC(C(F)F)CC3)c2)c1)C(F)(F)F` (centres unmarked) [Example 142], the IC50 is 6 nM.

Take `CC(O)(C(=O)NCc1ccc(Cl)c(C(=O)Nc2ccc(OCC(F)F)c(C(=O)Nc3ccc(Br)cc3)c2)c1)C(F)(F)F` (centres unmarked) [Example 166]: the IC50 was found to be 8 nM.

Consider `CC(C)(C(=O)NCc1ccc(Cl)c(C(=O)Nc2ccc(OCC(F)F)c(C(=O)Nc3cc(Cl)c4cc[nH]c4c3)c2)c1)C(F)(F)F` [Example 144], for which the IC50 is 7 nM.

Consider `COCCOc1ccc(NC(=O)c2cc(CNC(=O)C(C)(C)C(F)(F)F)ccc2Cl)cc1C(=O)N[C@H]1CC[C@H](C(F)(F)F)CC1` [Example 64], for which the IC50 worked out at 4 nM.

With `COc1cc(Cl)ccc1NC(=O)c1cc(NC(=O)c2c(Cl)ccc(CNC(=O)C(C)(C)C(F)(F)F)c2Cl)ccc1OCC(F)F` [Example 158], the IC50 turned out to be 2 nM.

Consider `CC(C)(C)C(=O)NCc1ccc(Cl)c(C(=O)Nc2ccc(OCC(F)F)c(C(=O)Nc3ccc(F)c(Cl)c3)c2)c1F` [Example 46, N-[4-(2,2-Difluoroethyl)oxy-3-(4-fluoro-3-chloro-phenyl)aminocarbonyl-phenyl]-6-chloro-2-fluoro-3-(tert-butylcarbonylamino)methyl-benzamide], for which the half-inhibitory concentration (IC50) is 5 nM.

Take `CC(C)(C(=O)NCc1ccc(Cl)c(C(=O)Nc2ccc(OCC(F)F)c(C(=O)NCc3ccc(F)cc3C(F)(F)F)c2)c1)C(F)(F)F` [Example 89]: the IC50 turned out to be 4 nM.

As for `CC1(NC(=O)c2cc(NC(=O)c3c(Cl)ccc(CNC(=O)C(C)(C)C(F)(F)F)c3Cl)ccc2OCC(F)F)CCOCC1` [Example 155], the 50% inhibitory concentration (IC50) is 150 nM.

For `CC(C)(C(=O)NCc1ccc(Cl)c(C(=O)Nc2ccc(OCC(F)F)c(C(=O)N[C@H]3CC[C@H](C(F)(F)F)CC3)c2)c1)C(F)(F)F` [Example 82, N-[4-(2,2-difluoroethyl)oxy-3-(trans-4-trifluoromethylcyclohexyl)aminocarbonyl-phenyl]-2-chloro-5-[(2,2,2-trifluoro-1,1-dimethyl-ethyl)carbonylamino}methyl-benzamide], the IC50 was found to be 8 nM.

For `CC(C)(C(=O)NCc1ccc(Cl)c(C(=O)Nc2ccc(OCC(F)F)c(C(=O)Nc3ccnc4ccccc34)c2)c1)C(F)(F)F` [Example 131], the IC50 was 9 nM.

Consider `Cc1ccc(Cl)cc1NC(=O)c1cc(NC(=O)c2c(Cl)ccc(CNC(=O)C(C)(C)C(F)(F)F)c2Cl)ccc1OCC(F)F` [Example 153], for which the IC50 came to 5 nM.

In the case of `CC(C)(C(=O)NCc1ccc(Cl)c(C(=O)Nc2ccc(OCC(F)F)c(C(=O)NCCC(F)(F)F)c2)c1)C(F)(F)F` [Example 115], the IC50 amounted to 15 nM.

On to `CC(C)(C)C(=O)NCc1ccc(Cl)c(C(=O)Nc2ccc(N3CCC(C(F)(F)F)CC3)c(C(=O)NCC3CC3)c2)c1` [Example 63], for which the IC50 turned out to be 5 nM.

For `O=C(Nc1ccc(OCC(F)F)c(C(=O)Nc2ccc(Br)cc2)c1)c1cc(CNC(=O)C(F)(F)F)ccc1Cl` [Example 80], the IC50 was 10 nM.

For `CC(C)(C)C(=O)NCc1ccc(Cl)c(C(=O)Nc2cnc(OCC(F)F)c(C(=O)N[C@H]3CC[C@H](C(F)(F)F)CC3)c2)c1Cl` [Example 178], the IC50 amounted to 7 nM.

Regarding `CC(C)(C(=O)NCc1ccc(Cl)c(C(=O)Nc2ccc(OC3CCOC3)c(C(=O)N[C@H]3CC[C@H](C(F)(F)F)CC3)c2)c1)C(F)(F)F` (some centres unmarked) [Example 67], the IC50 amounted to 5 nM.

For `CC(C)(C(=O)NCc1ccc(Cl)c(C(=O)Nc2ccc(OCC(F)F)c(C(=O)NC3CCCOC3)c2)c1)C(F)(F)F` (centres unmarked) [Example 123], the IC50 amounted to 48 nM.

Take `CNC(=O)c1cc(NC(=O)c2cc(CNC(=O)C(C)(C)C(F)(F)F)ccc2Cl)ccc1OCC(F)F` [Example 97]: the IC50 was 79 nM.

Take `CC(C)(C(=O)NCc1ccc(Cl)c(C(=O)Nc2ccc(OCC(F)F)c(C(=O)NC3CCC3)c2)c1)C(F)(F)F` [Example 122]: the IC50 was found to be 7 nM.

As for `CC(C)(C(=O)NCc1ccc(Cl)c(C(=O)Nc2ccc(OCC(F)F)c(C(=O)NC[C@@H]3CCCO3)c2)c1)C(F)(F)F` [Example 117], the IC50 was determined as 40 nM.

As for `CC(C)(C)C(=O)NCc1ccc(Cl)c(C(=O)Nc2ccc(N3CCC(F)(F)C3)c(C(=O)Nc3ccc(Br)cc3)c2)c1Cl` [Example 179], the half-maximal inhibitory concentration (IC50) was found to be 4 nM.

With `CC(C)CNC(=O)c1cc(NC(=O)c2cc(CNC(=O)C(C)(C)C(F)(F)F)ccc2Cl)ccc1OCC(F)F` [Example 140], the IC50 came out at 8 nM.

Take `CC(NC(=O)c1cc(NC(=O)c2c(Cl)ccc(CNC(=O)C(C)(C)C(F)(F)F)c2Cl)ccc1OCC(F)F)C1CC1` (centres unmarked) [Example 148]: the IC50 worked out at 1 nM.

With `CC(C)(C(=O)NCc1ccc(Cl)c(C(=O)Nc2ccc(OCC(F)F)c(C(=O)Nc3nc4ccc(Cl)cc4s3)c2)c1)C(F)(F)F` [Example 93], the IC50 came out at 7 nM.

In the case of `Cc1c(CNC(=O)C(C)(C)C)ccc(Cl)c1C(=O)Nc1ccc(OCC(F)F)c(C(=O)Nc2ccc(Br)cc2)c1` [Example 51, N-[4-(2,2-Difluoroethyl)oxy-3-(4-bromophenyl)aminocarbonyl-phenyl]-6-chloro-2-methyl-3-(tert-butylcarbonylamino)methyl-benzamide], the half-maximal inhibitory concentration (IC50) amounted to 5 nM.

As for `CC(C)(C)C(=O)NCc1ccc(Cl)c(C(=O)Nc2ccc(N3CC(F)(F)C3)c(C(=O)Nc3ccc(Br)cc3)c2)c1` [Example 60, N-[4-(3,3-Difluoro-azetidin-1-yl)-3-(4-bromphenyl)aminocarbonyl-phenyl]-2-chloro-5-(tert-butylcarbonylamino)methyl-benzamide], the IC50 was 26 nM.

Consider `Cc1nc(C(=O)NCc2ccc(Cl)c(C(=O)Nc3ccc(OCC(F)F)c(C(=O)Nc4ccc(Br)cc4)c3)c2)c(C)s1` [Example 168], for which the IC50 was 105 nM.

As for `CC(C)(C(=O)NCc1ccc(Cl)c(C(=O)Nc2ccc(OCC(F)F)c(C(=O)NC3CC(F)(F)C3)c2)c1Cl)C(F)(F)F` [Example 154], the IC50 was determined as 9 nM.

For `CC(C)(C(=O)NCc1ccc(Cl)c(C(=O)Nc2ccc(N3CCC(C(F)(F)F)CC3)c(C(=O)NCC3CC3)c2)c1Cl)C(F)(F)F` [Example 59, N-[4-(4-Trifluoromethyl-piperidin-1-yl)-3-(cyclopropylmethyl)aminocarbonyl-phenyl]-2,6-dichloro-3-[(2,2,2-trifluoro-1,1-dimethyl-ethyl)carbonylamino]methyl-benzamide], the concentration for half-maximal inhibition (IC50) stood at 5 nM.

In the case of `CC(C)(C)C(=O)NCc1ccc(Cl)c(C(=O)Nc2ccc(N3CCC(C(F)(F)F)CC3)c(C(=O)N[C@H]3CC[C@H](C(F)(F)F)CC3)c2)c1` [Example 58, N-[4-(4-Trifluoromethyl-piperidin-1-yl)-3-(trans-4-trifluoromethylcyclohexyl)aminocarbonyl-phenyl]-2-chloro-5-(tert-butylcarbonylamino)methyl-benzamide], the IC50 worked out at 3 nM.

For the molecule `CC1(C(=O)NCc2ccc(Cl)c(C(=O)Nc3ccc(OCC(F)F)c(C(=O)Nc4ccc(Br)cc4)c3)c2)CCCO1` (centres unmarked) [Example 163], the IC50 is 6 nM.

Turning to `CC1CCC(NC(=O)c2cc(NC(=O)c3cc(CNC(=O)C(C)(C)C(F)(F)F)ccc3Cl)ccc2OCC(F)F)CC1` (centres unmarked) [Example 96], the IC50 was 5 nM.

By IC50 is commonly meant the concentration that gives 50% inhibition.
